Values of other authors, collected in patent US5763435A, “Sulfate conjugates of ursodeoxycholic acid, and their beneficial use in inflammatory disorders” (priority 1995, dated 1998).

Columns and labels:
colonic epithelial cell = conditions: in vitro; cited from earlier work
[1] = rat, in vivo; cited from earlier work

Structure (SMILES) | Effect on colonic epithelial cell proliferation (in words) (colonic epithelial cell) | Metabolism to 3α,7α-disulfate, 6β-hydroxy 5β-cholanoic acid [1]
C[C@H](CCC(=O)O)[C@H]1CC[C@H]2[C@@H]3CC[C@@H]4C[C@H](O)CC[C@]4(C)[C@H]3C[C@H](O)[C@]12C [deoxycholic, deoxycholic acid] | comitogenic | 
C[C@H](CCC(=O)NCC(=O)O)[C@H]1CC[C@H]2[C@@H]3[C@H](OS(=O)(=O)O)C[C@@H]4C[C@H](OS(=O)(=O)O)CC[C@]4(C)[C@H]3CC[C@]12C [glycochenodeoxycholic acid disulfates] |  | 90%
C[C@H](CCC(=O)O)[C@H]1CC[C@H]2[C@@H]3CC[C@@H]4C[C@H](O)CC[C@]4(C)[C@H]3CC[C@]12C [lithocholic acids, lithocholic acid] | comitogenic | 
C[C@H](CCC(=O)NCCS(=O)(=O)O)[C@H]1CC[C@H]2[C@@H]3[C@H](OS(=O)(=O)O)C[C@@H]4C[C@H](OS(=O)(=O)O)CC[C@]4(C)[C@H]3CC[C@]12C [taurochenodeoxycholic acid disulfates] |  | 90%
